IC50 data for 5 compounds are collected here from US8481539B2, “Alkynylaryl compounds and salts thereof, pharmaceutical compositions comprising same, methods of preparing same and uses of same” (Bayer Intellectual Property GmbH, priority 2007, dated 2013).

Assay [1] concerns the target T1, Tie-2 (Homo sapiens, UniProt Q02763).
T1 construct: fusion protein of GST and the intracellular domains of Tie-2; GST; made in house; host or cells: insect cells (Hi-5)
The assay can be described thus: Tie-2-Kinase HTRF-Assay (assay 2). Type of assay: biochemical. The conditions noted are these: pIC50 class; 10 μM ATP; read-out: Enzymatic Tie 2 activity (assay 2). From the text:
Tie2-inhibitory activity of compounds of the present invention was quantified employing two Tie2 HTRF assay as described in the following paragraphs.
A recombinant fusion protein of GST and the intracellular domains of Tie-2, expressed in insect cells (Hi-5) and purified by Glutathion-Sepharose affinity chromatography was used as kinase. Alternatively, commercially available GST-Tie2-fusion protein (Upstate Biotechnology, Dundee, Scotland) can be used As substrate for the kinase reaction the biotinylated peptide biotin-Ahx-EPKDDAYPLYSDFG (C-terminus in amid form) was used which can be purchased e.g. from the company Biosynthan GmbH (Berlin-Buch, Germany). Detection of phosphorylated product is achieved specifically by a trimeric detection complex consisting of the phosphorylated substrate, streptavidin-XLent (SA-XLent) which binds to biotin, and Europium Cryptate-labeled anti-phosphotyrosine antibody PT66 which binds to phosphorylated tyrosine.
Tie-2 (3.5 ng/measurement point) was incubated for 60 min at 22° C. in the presence of 10 μM adenosine-tri-phosphate (ATP) and 1 μM substrate peptide (biotin-Ahx-EPKDDAYPLYSDFG-NH2) with different concentrations of test compounds (0 μM and concentrations in the range 0.001-20 μM) in 5 μl assay buffer [50 mM Hepes/NaOH pH 7, 10 mM MgCl2, 0.5 mM MnCl2, 1.0 mM dithiothreitol, 0.01% NP40, protease inhibitor mixture (“Complete w/o EDTA” from Roche, 1 tablet per 2.5 ml), 1% (v/v) dimethylsulfoxide]. The reaction was stopped by the addition of 5 μl of an aqueous buffer (25 mM Hepes/NaOH pH 7.5, 0.28% (w/v) bovine serum albumin) containing EDTA (90 mM) and the HTRF (Homogeneous Time Resolved Fluorescence) detection reagents streptavidine-XLent (0.2 μM, from Cis Biointemational, Marcoule, France) and PT66-Eu-Chelate (0.3 ng/μl; a europium-chelate labelled anti-phospho-tyrosine antibody from Perkin Elmer).
(§1) The resulting mixture was incubated 1 h at 22° C. to allow the binding of the biotinylated phosphorylated peptide to the streptavidine-XLent and the PT66-Eu-Chelate. Subsequently the amount of phosphorylated substrate peptide was evaluated by measurement of the resonance energy transfer from the PT66-Eu-Chelate to the streptavidine-XLent. Therefore, the fluorescence emissions at 620 nm and 665 nm after excitation at 350 nm was measured in a HTRF reader, e.g. a Rubystar (BMG Labtechnologies, Offenburg, Germany) or a Viewlux (Perkin-Elmer). The ratio of the emissions at 665 nm and at […] was taken as the measure for the amount of phosphorylated substrate peptide. The data were normalised (enzyme reaction without inhibitor=0 (% inhibition, all other assay components but no enzyme=100% inhibition) and IC50 values were calculated by a 4 parameter fit using an inhouse software.

The target of assay [2] is T2, human VEGFR2 (Homo sapiens, UniProt P35968).
T2 construct: GST-tagged recombinant kinase domain of the human VEGFR2; GST; host or cells: SF-9 cells
T2 sequence (P35968 834-1162 limits assumed): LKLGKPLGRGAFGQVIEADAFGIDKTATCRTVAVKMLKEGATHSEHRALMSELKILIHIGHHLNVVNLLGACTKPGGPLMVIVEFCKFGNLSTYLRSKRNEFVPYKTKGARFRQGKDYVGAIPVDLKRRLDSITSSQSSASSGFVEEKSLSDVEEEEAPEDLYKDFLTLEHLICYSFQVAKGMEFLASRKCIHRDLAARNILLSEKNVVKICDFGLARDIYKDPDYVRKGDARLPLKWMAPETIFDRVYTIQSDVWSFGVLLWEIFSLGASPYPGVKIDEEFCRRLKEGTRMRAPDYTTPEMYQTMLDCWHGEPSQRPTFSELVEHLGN
In words: VEGFR2 HTRF Assay (assay 5). Type of assay: biochemical. The conditions noted are these: pIC50 class; 10 μM ATP; read-out: Enzymatic VEGFR2 activity (assay 5).
Excerpt: Assay 5: VEGFR2 HTRF Assay
VEGFR2 inhibitory activity of compounds of the present invention was quantified employing the VEGFR2 HTRF assay as described in the following paragraphs.
GST-tagged recombinant kinase domain of the human VEGFR2 expressed in SF-9 cells was used as kinase. As substrate for the kinase reaction the biotinylated peptide biotin-Ahx-DFGLARDMYDKEYYSVG (C-terminus in acid form) was used which can be purchased e.g. form the company Biosynthan GmbH (Berlin-Buch, Germany). VEGFR2 was incubated for 45 min at 22° C. in the presence of different concentrations of test compounds in 5 μl assay buffer [50 mM Hepes/NaOH pH 7.0, 25 mM MgCl2, 5 mM MnCl2, 1.0 mM dithiothreitol, 0.1 mM sodium ortho-vanadate, 10 μM adenosine-tri-phosphate (ATP), 0.5 μM substrate, 0.001% (v/v) Nonidet-P40 (Sigma), 1% (v/v) dimethylsulfoxide]. The concentration of VEGFR2 was adjusted depending of the activity of the enzyme lot and was chosen appropriate to have the assay in the linear range. The reaction was stopped by the addition of 5 μl of a solution of HTRF detection reagents (0.1 μM streptavidine-XLent and 2 nM PT66-Eu-Chelate, an europium-chelate labelled anti-phospho-tyrosine antibody from Perkin Elmer) in an aqueous EDTA-solution (125 mM EDTA, 0.2% (w/v) bovine serum albumin in 50 mM HEPES/NaOH pH 7.0).
as §1, with “incubated for” for “incubated”, “substrate” for “substrate peptide”, “substrate.” for “substrate peptide.”, “normalized” for “normalised”, “inhibitor=0%” for “inhibitor=0 (%”

SMILES strings stand for the structures.

T1 sequence (Q02763 770-1124 limits assumed, species assumed): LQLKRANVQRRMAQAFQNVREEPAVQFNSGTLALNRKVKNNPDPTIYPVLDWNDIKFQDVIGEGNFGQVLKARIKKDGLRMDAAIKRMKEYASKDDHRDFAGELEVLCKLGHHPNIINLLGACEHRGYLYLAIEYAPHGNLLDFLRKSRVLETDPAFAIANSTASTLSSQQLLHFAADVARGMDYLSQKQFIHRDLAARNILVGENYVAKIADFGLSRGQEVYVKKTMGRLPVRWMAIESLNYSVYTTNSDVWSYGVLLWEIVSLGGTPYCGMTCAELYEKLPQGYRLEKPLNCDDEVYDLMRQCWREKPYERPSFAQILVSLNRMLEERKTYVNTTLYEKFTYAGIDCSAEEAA

In the case of `Cn1ncc2c(C#Cc3cccc(NC(=O)c4cccc(C(F)(F)F)c4)c3)cncc21` [Example 1.5, N-[3-(1-Methyl-1H-pyrazolo[3,4-c]pyridin-4-ylethynyl)-phenyl]-3-trifluoromethyl-benzamide], the IC50 in assay [1] and in assay [2] was less than 1 µM in each case.
`Cc1ccc(NC(=O)c2cccc(C(F)(F)F)c2)cc1C#Cc1cncc2c1cnn2C` [Example 1.6, N-[4-Methyl-3-(1-methyl-1H-pyrazolo[3,4-c]pyridin-4-ylethynyl)-phenyl]-3-trifluoromethyl-benzamide]: the IC50 in assay [1] and in assay [2] was less than 1 µM throughout.
`Cn1ncc2c(C#Cc3cc(NC(=O)c4cccc(C(F)(F)F)c4)ccc3F)cncc21` [Example 1.9, N-[4-Fluoro-3-(1-methyl-1H-pyrazolo[3,4-c]pyridin-4-ylethynyl)-phenyl]-3-trifluoromethyl-benzamide]: the IC50 in assay [1] and in assay [2] was less than 1 µM each time.
Regarding `Cn1ncc2c(C#Cc3cccc(NC(=O)Nc4ccccc4)c3)cncc21` [Example 2.1, 1-[3-(1-Methyl-1H-pyrazolo[3,4-c]pyridin-4-ylethynyl)-phenyl]-3-phenyl-urea], the IC50 in assay [1] and in assay [2] was less than 1 µM in each case.
In the case of `Cc1ccc(NC(=O)Nc2cccc(C(F)(F)F)c2)cc1C#Cc1cncc2c1cnn2C` [Example 2.4, 1-[4-Methyl-3-(1-methyl-1H-pyrazolo[3,4-c]pyridin-4-ylethynyl)-phenyl]-3-(3-trifluoromethyl-phenyl)-urea], the IC50 in assay [1] and in assay [2] was less than 1 µM each time.
